# Experimental data as given in US12692264B2, “Pyrimidine or pyridine derivative, preparation method therefor, and application thereof in pharmacy” (ABBISKO THERAPEUTICS CO., LTD., priority 2021, dated 2026).
# How the values were obtained:
# Format in all cases: cell-based
# [1] = target: Ba/F3 EGFR-D770-N771ins_SVD (Homo sapiens, UniProt P00533, DUP768-770, cells depend on it); assay: Cell proliferation study (CellTiter-Glo, 72 hrs), Ba/F3 EGFR-D770-N771ins_SVD; details: CTG, * = average of multiple measurements, read-out: Ba/F3 EGFR-D770-N771ins_SVD IC50
# Description: (§1) (I) Reagents and Materials
# (§2) • Fetal bovine serum FBS (GBICO, Cat #10099-141); • CellTiter-Glo® luminescent cell viability assay kit (Promega, Cat #G7572); • Black transparent flat-bottom 96-well plate (Corning®, Cat #3603). (II) Instruments • SpectraMax multi-label microplate reader MD, 2104-0010A; • Carbon dioxide incubator, Thermo Scientific 3100 series; • Biological safety cabinet, Thermo Scientific, 1300 series model A2; • Inverted microscope, Olympus, CKX41SF; • Siemens refrigerator KK25E76T1. (III) Cell Lines and Culture Conditions
# (§3) (IV) Experimental Procedures 1. Cell Culture and Inoculation: • (1) Cells in the logarithmic growth phase were harvested and counted using a […]. The cell viability was determined by the trypan blue dye exclusion method to ensure cell viability above 90%. • (2) The cell concentration was adjusted to reach a desired final density; 90 μL of cell suspension was added to a 96-well plate. • (3) The cells were incubated overnight in the 96-well plate at 37° C., 5% CO2 and with 95% humidity. 2. T0 Benchmark Data: • (1) 10 μL of PBS was added to each well of the TO plate containing the cells. • (2) The CTG reagent was thawed and the cell plate was equilibrated to room temperature for 30 min. • (3) An equal volume of CTG solution was added to each well. • (4) The cells were lysed by shaking on an orbital shaker for 5 min. • (5) The cell plate was left to stand at room temperature for 20 min to stabilize the fluorescence signal. • (6) The fluorescence signal values of TO were read. 3. Dilution and Addition of Compounds • (1) According to the compound information table, a corresponding volume of DMSO was added to the corresponding compound powder to prepare a 10 mM stock solution. • (2) A 1000-fold, 3.16-fold-diluted compound solution was prepared. • (3) The 1000× diluted compound solution was diluted 100-fold with PBS to prepare a 10-fold compound solution with a maximum concentration of 10 μM, including 9 concentrations, with 3.16-fold dilution, and 10 μL of the medicament solution was added to each well of the 96-well plate to seed the cells. Triplicate wells were set for each compound concentration, with a final concentration of DMSO being 0.1%. • (4) The cells were placed in the 96-well plate containing the medicament at 37° C., 5% CO2 and with 95% humidity, and cultured for 72 hrs before CTG analysis. 4. Fluorescence Signal Reading • (1) The CTG reagent was thawed and the cell plate was equilibrated to room temperature for 30 min. • (2) An equal volume of CTG solution was added to each well. • (3) The cells were lysed by shaking on an orbital shaker for 5 min. • (4) The cell plate was left to stand at room temperature for 20 min to stabilize the fluorescence signal. • (5) The fluorescence values were read. 5. Data Processing
# (§4) Data were analyzed using GraphPad Prism 7.0 software and fitted data were regressed using non-linear S-curves to obtain dose-response curves from which IC50 values (in nM) were calculated.
# A431 (EGFR-WT) = assay: Cell proliferation study (CellTiter-Glo, 72 hrs), A431; details: Homo sapiens, A-431, A431 cells, CTG, * = average of multiple measurements
# Description: as §1, §2, §3, §4
# [2] = target: Ba/F3 EGFR-V769_D770insASV (Homo sapiens, UniProt P00533, DUP767-769, cells depend on it); assay: Cell proliferation study (CellTiter-Glo, 72 hrs), Ba/F3 EGFR-V769_D770insASV; details: CTG, * = average of multiple measurements, read-out: Ba/F3 EGFR-V769_D770insASV IC50
# Description: as §1, §2, §3, §4
# Sequence of Ba/F3 EGFR-V769_D770insASV (P00533 with tags, fused parts or gaps DUP767-769): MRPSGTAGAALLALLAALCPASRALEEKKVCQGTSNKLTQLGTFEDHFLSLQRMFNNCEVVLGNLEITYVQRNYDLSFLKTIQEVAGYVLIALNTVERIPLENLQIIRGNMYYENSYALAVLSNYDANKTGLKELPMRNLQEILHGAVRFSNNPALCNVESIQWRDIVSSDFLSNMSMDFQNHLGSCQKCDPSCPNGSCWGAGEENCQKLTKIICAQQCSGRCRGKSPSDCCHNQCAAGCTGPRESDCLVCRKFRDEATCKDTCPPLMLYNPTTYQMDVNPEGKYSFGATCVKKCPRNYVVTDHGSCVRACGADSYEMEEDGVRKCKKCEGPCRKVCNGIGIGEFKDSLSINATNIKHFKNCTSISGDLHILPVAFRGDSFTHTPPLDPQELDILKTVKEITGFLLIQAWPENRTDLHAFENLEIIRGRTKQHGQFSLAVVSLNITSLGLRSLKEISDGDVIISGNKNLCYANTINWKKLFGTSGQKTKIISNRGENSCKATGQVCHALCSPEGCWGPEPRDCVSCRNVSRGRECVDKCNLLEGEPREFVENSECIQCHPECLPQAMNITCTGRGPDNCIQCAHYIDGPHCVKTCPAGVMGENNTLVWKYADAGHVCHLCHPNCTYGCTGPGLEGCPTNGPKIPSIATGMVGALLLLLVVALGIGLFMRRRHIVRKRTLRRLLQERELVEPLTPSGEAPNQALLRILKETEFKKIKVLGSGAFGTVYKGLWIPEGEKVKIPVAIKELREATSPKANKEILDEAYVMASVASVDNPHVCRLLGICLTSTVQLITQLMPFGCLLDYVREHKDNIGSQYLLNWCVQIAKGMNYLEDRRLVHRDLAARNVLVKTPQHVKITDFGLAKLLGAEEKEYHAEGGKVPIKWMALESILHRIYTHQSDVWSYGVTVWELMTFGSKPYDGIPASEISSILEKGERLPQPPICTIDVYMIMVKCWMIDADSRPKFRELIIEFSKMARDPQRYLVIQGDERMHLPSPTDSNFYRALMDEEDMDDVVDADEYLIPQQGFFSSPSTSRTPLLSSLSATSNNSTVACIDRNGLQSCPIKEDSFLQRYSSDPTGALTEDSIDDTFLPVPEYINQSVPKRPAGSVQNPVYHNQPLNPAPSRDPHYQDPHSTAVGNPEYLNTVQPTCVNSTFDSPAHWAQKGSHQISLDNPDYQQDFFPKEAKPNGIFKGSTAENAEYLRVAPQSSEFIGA
# Sequence of Ba/F3 EGFR-D770-N771ins_SVD (P00533 with tags, fused parts or gaps DUP768-770): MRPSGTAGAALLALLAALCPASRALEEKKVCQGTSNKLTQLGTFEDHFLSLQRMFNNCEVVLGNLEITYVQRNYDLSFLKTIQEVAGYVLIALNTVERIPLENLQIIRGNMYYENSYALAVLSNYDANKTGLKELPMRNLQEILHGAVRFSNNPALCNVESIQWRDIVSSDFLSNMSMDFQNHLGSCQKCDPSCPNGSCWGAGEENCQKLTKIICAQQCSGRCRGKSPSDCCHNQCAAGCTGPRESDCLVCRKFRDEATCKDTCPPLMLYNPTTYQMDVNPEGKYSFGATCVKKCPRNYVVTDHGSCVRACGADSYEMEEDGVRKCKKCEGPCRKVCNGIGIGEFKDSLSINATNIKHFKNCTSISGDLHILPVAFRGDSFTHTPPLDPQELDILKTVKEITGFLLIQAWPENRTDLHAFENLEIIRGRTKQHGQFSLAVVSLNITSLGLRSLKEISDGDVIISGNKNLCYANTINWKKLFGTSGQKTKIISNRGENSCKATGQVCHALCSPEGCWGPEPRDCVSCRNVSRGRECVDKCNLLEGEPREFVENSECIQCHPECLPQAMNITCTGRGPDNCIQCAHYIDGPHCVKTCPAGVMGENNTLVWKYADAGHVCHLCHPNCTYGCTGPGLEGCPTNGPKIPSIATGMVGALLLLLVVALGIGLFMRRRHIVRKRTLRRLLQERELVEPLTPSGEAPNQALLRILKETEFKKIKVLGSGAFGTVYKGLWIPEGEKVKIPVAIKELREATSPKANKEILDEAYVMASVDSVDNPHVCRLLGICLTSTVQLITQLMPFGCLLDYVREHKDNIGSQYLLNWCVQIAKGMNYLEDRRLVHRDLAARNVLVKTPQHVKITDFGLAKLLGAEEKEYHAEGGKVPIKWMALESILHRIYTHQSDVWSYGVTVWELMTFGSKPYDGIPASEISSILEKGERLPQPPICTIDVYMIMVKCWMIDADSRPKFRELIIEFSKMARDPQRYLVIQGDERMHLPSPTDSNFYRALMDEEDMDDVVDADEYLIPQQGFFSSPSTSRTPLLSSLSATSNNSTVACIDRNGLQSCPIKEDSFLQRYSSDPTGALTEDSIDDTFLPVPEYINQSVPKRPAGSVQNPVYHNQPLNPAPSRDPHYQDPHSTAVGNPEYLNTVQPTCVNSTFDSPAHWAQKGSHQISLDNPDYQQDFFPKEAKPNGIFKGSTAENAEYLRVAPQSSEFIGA
SMILES,GI50 [1] [nM],IC50 (A431 (EGFR-WT)) [nM],GI50 [2] [nM]
"C=CC(=O)Nc1cc(Nc2ncc(C(=O)OC(C)C)c(N3CC(C)(C)c4nc(C)ccc43)n2)c(OC)cc1N(C)CCNC [Example 15, isopropyl 2-((5-acrylamido-2-methoxy-4-(methyl (2-(methylamino)ethyl)amino)phenyl)amino)-4-(3,3,5-trimethyl-2,3-dihydro-1H-pyrrolo[3,2-b]pyridin-1-yl)pyrimidine-5-carboxylate]",35,879,49.2
"C=CC(=O)Nc1cc(Nc2ncc(C(=O)OC(C)C)c(N3CC(C)(C)c4nc(C#CC)ccc43)n2)c(OC)cc1N1CC(N(C)C)C1 [Example 76, isopropyl 2-((5-acrylamido-4-(3-(dimethylami-no)azetidin-1-yl)-2-methoxyphenyl)ami-no)-4-(3,3-dimethyl-5-(prop-1-yn-1-yl)-2,3-dihydro-1H-pyrrolo[3,2-b]pyridin-1-yl)pyrimidine-5-carboxylate]",30.9,1260,93.9
"C=CC(=O)Nc1cc(Nc2ncc(C(=O)OC(C)C)c(N3CC(C)(C)c4nc(C)ccc43)n2)c(OC)nc1N1C[C@@H](F)C[C@@H]1CN(C)C [Example 59, isopropyl 2-((5-acrylamido-6-((2R,4S)-2-((dimethylamino)methyl)-4-fluoro-pyrrolidin-1-yl)-2-methoxypyridin-3-yl)amino)-4-(3,3,5-trimethyl-2,3-dihydro-1H-pyrrolo[3,2-b]pyridin-1-yl)pyrimidine-5-carboxylate]",18.4,150,18.4
"C=CC(=O)Nc1cc(Nc2ncc(C(=O)OC(C)C)c(N3CC(C)(C)c4ncccc43)n2)c(OC)cc1N(C)CCN(C)C [Example 2, isopropyl 2-((5-acrylamido-4-((2-(dimethylami-no)ethyl)(methyl)amino)-2-methoxy-phenyl)amino)-4-(3,3-dimethyl-2,3-dihydro-1H-pyrrolo[3,2-b]pyridin-1-yl)pyrimidine-5-carboxylate]",26.8,479,35
"C=CC(=O)Nc1cc(Nc2ncc(C(=O)OC(C)C)c(N3CC(C)(C)c4nc(Cl)ccc43)n2)c(OC)cc1N(C)CCN(C)C [Example 57, isopropyl 2-((5-acrylamido-4-((2-(dimethylami-no)ethyl)(methyl)amino)-2-methoxy-phenyl)amino)-4-(5-chloro-3,3-dimethyl-2,3-dihydro-1H-pyrrolo[3,2-b]pyridin-1-yl)pyrimidine-5-carboxylate]",23.3,988,62.4
"[2H]C([2H])([2H])Oc1cc(N(CCN(C([2H])([2H])[2H])C([2H])([2H])[2H])C([2H])([2H])[2H])c(NC(=O)C=C)cc1Nc1ncc(C(=O)OC(C)C)c(N2CC(C)(C)c3nc(C)ccc32)n1 [Example 72, isopropyl 2-((5-acrylamido-4-((2-(bis(methyl-d3)amino)ethyl)(methyl-d3)amino)-2-(methoxy-d3)phenyl)amino)-4-(3,3,5-trimethyl-2,3-dihydro-1H-pyrrolo[3,2-b]pyridin-1-yl)pyrimidine-5-carboxylate]",24.8,120,35.3
"C=CC(=O)Nc1cc(Nc2ncc(C(=O)OC(C)C)c(N3CC(C)(C)c4nc(C#CC)ccc43)n2)c(OC)cc1N1CCC[C@@H]1CN(C)C [Example 79, isopropyl (R)-2-((5-acrylamido-4-(2-((dimethyl-amino)methyl)pyrrolidin-1-yl)-2-meth-oxyphenyl)amino)-4-(3,3-dimethyl-5-(prop-1-yn-1-yl)-2,3-dihydro-1H-pyrrolo[3,2-b]pyridin-1-yl)pyrimidine-5-carboxylate]",20.2,252,58.2
"C=CC(=O)Nc1cc(Nc2ncc(C(=O)OC(C)C)c(N3CC(C)(C)c4nc(C)ccc43)n2)c(OC)cc1N(C)CCN1CCC1 [Example 67, isopropyl 2-((5-acrylamido-4-((2-(azetidin-1-yl)ethyl)(methyl)amino)-2-methoxy-phenyl)amino)-4-(3,3,5-trimethyl-2,3-dihydro-1H-pyrrolo[3,2-b]pyridin-1-yl)pyrimidine-5-carboxylate]",23.9,515,37.1

# These reach a lower GI50 [1]. Values come first.
GI50 [1] [nM],IC50 (A431 (EGFR-WT)) [nM],GI50 [2] [nM],SMILES
17.8,23.3,31.8,"C#Cc1ccc2c(n1)C(C)(C)CN2c1nc(Nc2cc(NC(=O)C=C)c(N(C)CCN(C)C)cc2OC)ncc1C(=O)OC(C)C [Example 9, isopropyl 2-((5-acrylamido-4-((2-(dimethylamino)ethyl)(methyl)amino)-2-methoxyphenyl)amino)-4-(5-ethynyl-3,3-dimethyl-2,3-dihydro-1H-pyrrolo[3,2-b]pyridin-1-yl)pyrimidine-5-carboxylate]"
15.8,516,30.4,"C=CC(=O)Nc1cc(Nc2ncc(C(=O)OC(C)C)c(N3CC4(CCC4)c4nc(C)ccc43)n2)c(OC)cc1N(C)CCN(C)C [Example 5, isopropyl 2-((5-acrylamido-4-((2-(dimethylami-no)ethyl)(methyl)amino)-2-methoxy-phenyl)amino)-4-(5′-methylspiro(cyclo-butane-1,3′-pyrrolo[3,2-b]pyridin)-1′(2′H)-yl)pyrimidine-5-carboxylate]"
15.4,20.9,9.2,"C=CC(=O)Nc1cc(Nc2ncc(C(=O)OC(C)C)c(N3CC(C)(C)c4ncccc43)n2)c(OC)cc1N1C[C@@H](F)C[C@@H]1CN(C)C [Example 88, isopropyl 2-((5-acrylamido-4-((2R,4S)-2-((di-methylamino)methyl)-4-fluoro-pyrrolidin-1-yl)-2-methoxy-phenyl)amino)-4-(3,3-dimethyl-2,3-dihydro-1H-pyrrolo[3,2-b]pyridin-1-yl)pyrimidine-5-carboxylate]"
12.3,120,16,"C=CC(=O)Nc1cc(Nc2ncc(C(=O)OC(C)C)c(N3CC(C)(C)c4nc(C)ccc43)n2)c(OC)cc1N(C)C[C@H]1CCCN1C [Example 62, isopropyl (R)-2-((5-acrylamido-2-methoxy-4-(methyl((1-methylpyrrolidin-2-yl)methyl)amino)phenyl)amino)-4-(3,3,5-trimethyl-2,3-dihydro-1H-pyrrolo[3,2-b]pyridin-1-yl)pyrimidine-5-carboxylate]"
11.7,97.2,32.2,"[2H]C([2H])([2H])N(CCN(C([2H])([2H])[2H])C([2H])([2H])[2H])c1cc(OC)c(Nc2ncc(C(=O)OC(C)C)c(N3CC(C)(C)c4nc(C)ccc43)n2)cc1NC(=O)C=C [Example 77, isopropyl 2-((5-acrylamido-4-((2-(bis(methyl-d3)amino)ethyl)(methyl-d3)amino)-2-methoxyphenyl)amino)-4-(3,3,5-tri-methyl-2,3-dihydro-1H-pyrrolo[3,2-b]pyridin-1-yl)pyrimidine-5-carboxylate]"
11.3,114,23.6,"[2H]C([2H])([2H])N(CCN(C)c1cc(OC)c(Nc2ncc(C(=O)OC(C)C)c(N3CC(C)(C)c4nc(C)ccc43)n2)cc1NC(=O)C=C)C([2H])([2H])[2H] [Example 42, isopropyl 2-((5-acrylamido-4-((2-(bis(methyl-d3)amino)ethyl)(methyl)amino)-2-methoxyphenyl)amino)-4-(3,3,5-trimethyl-2,3-dihydro-1H-pyrrolo[3,2-b]pyridin-1-yl)pyrimidine-5-carboxylate]"
10.9,57,13.6,"C=CC(=O)Nc1cc(Nc2ncc(C(=O)OC(C)C)c(N3CC(C)(C)c4nc(C)ccc43)n2)c(OC)cc1N1CCC[C@@H]1CN(C)C [Example 83, isopropyl (R)-2-((5-acrylamido-4-(2-((dimethyl-amino)methyl)pyrrolidin-1-yl)-2-meth-oxyphenyl)amino)-4-(3,3,5-trimethyl-2,3-dihydro-1H-pyrrolo[3,2-b]pyridin-1-yl)pyrimidine-5-carboxylate]"
